Experimental data: US11707441B2, “Safinamide for treating myotonia” (Zambon S.P.A., priority 2018, dated 2023)
Where two headings read alike, the source gives them in different places.

What was measured:
[1] = tested on: rat model of myotonia congenita; assay: In vivo antimyotonic activity in 9-AC-induced rat model of myotonia congenita, time of righting reflex (TRR)
Method: Myotonia was induced in rats by intraperitoneal injection of 9-AC, which is a known blocker of skeletal muscle ClC-1 chloride channels (Conte Camerino et al., Muscle Nerve. 1989; 12(11):898-904. Altamura et al., Br J Pharmacol. 2018; 175(10):1770-1780). Male Wistar rats (250-300 g) were used. Experiments were performed in accordance with the Guide for the Care and Use of Laboratory Animals and with Italian Health Department approval n. 194/2018-PR. Experimenters were blinded to the treatments. In this animal model, 9-AC mimics in vivo myotonia congenita, a human disease due to loss-of-function mutations in CLCN1 gene encoding ClC-1 channels. […] Nevertheless, the animals remained fully conscious and alert. Breathing was normal. When hearing an unexpected noise, the animals reacted by a jump on site but had great difficulties to move away due to muscle stiffness. Myotonia was evaluated by measuring the time of righting reflex (TRR, the time needed for the rat placed in supine position to turn back on its four paws). In rats, before 9-AC injections the TRR was less than 0.5 s. […] Then the TRR decreased gradually over time, being close to 1 s, 3 h after 9-AC. An anti-myotonic drug is expected to counteract the 9-AC-induced TRR prolongation. The TRR was evaluated about 10 minutes before 9-AC (Time 0) and 10, 37, 67, 127, and 187 min after 9-AC (30 mg/kg i.p.). The TRR measured at each time point was the mean of 7 measurements spaced by 1 min (to limit warm-up effect). Safinamide methanesulfonate (10 and 30 mg/kg as free base) or vehicle were administrated by oral gavage to the rats 17 min after 9-AC injection. 9-AC and safinamide methanesulfonate were dissolved in bicarbonate and 0.9% NaCl solution, respectively. To allow comparison between rats, the TRR measured at each time point was normalized as a function of TRR measured 10 min after 9AC injection in the same rat. Then average data were calculated for each dosage as the mean±S.E.M. Statistical analysis was performed using one-way analysis of variance (ANOVA) followed by ad-hoc Bonferroni's t test. […] In this in vivo model the dose-response curve of safinamide methanesulfonate at increasing doses (0.3, 1, 3, 10 and 30 mg/kg as free base) was also studied. To allow comparison between rats, the TRR measured at each time point was normalized as a function of TRR measured 10 min after 9AC injection in the same rat. Then average data were calculated for each drug/dosage as the mean±S.E.M. Statistical analysis will be performed using one-way analysis of variance (ANOVA) followed by ad-hoc Bonferroni's t test.

[2] = tested on: hNav1.4 point mutations; assay: Potency in cells transfected with hNav1.4 point mutations compared to wild type; type: cell-based, human
Method: The effect of safinamide was evaluated on some hNav1.4 point mutations located in the inactivation site. Human skeletal muscle subtype of voltage-gated sodium channels (hNav1.4), either wild-type or myotonic mutants, were transiently transfected in HEK293T cells with the calcium-phosphate co-precipitation method. Whole-cell sodium currents (INa) were recorded at room temperature (20-22° C.) using Axon conventional patch-clamp hardware (Molecular Devices, USA). Voltage clamp protocols and data acquisition were performed with pCLAMP software (Axon Instruments). Bath solution contained (mM) 150 NaCl, 4 KCl, 2 CaCl2, 1 MgCl2, 5 Na-HEPES, and 5 glucose (pH 7.4). The pipette solution contained (in mM) 120 CsF, 10 CsCl, 10 NaCl, 5 EGTA, and 5 Cs-HEPES (pH 7.2). Patch pipettes made with Corning 7052 glass (King glass, USA) had resistance ranging from 1 to 3 MΩ. […] The concentration-response curves of safinamide were produced by obtaining the peak current amplitude measured in the presence of drug (IDRUG), normalized to the peak current amplitude measured in the same cell before drug application (ICTRL), as a function of drug concentration [(DRUG)]. […] The IC50 values were determined at resting membrane potential (tonic block: -120 mV at 0.1 Hz) and after repetitive depolarizing pulses to -20 mV at 10 Hz (use and frequency-dependent block). […]

[3] = molecular target: T1, Wild Type hNav1.4 (Homo sapiens, UniProt P35499); assay: Whole-cell patch clamp sodium current inhibition in transfected HEK293T cells, wild type; type: cell-based
T1 construct: expressed in transfected cells; host or cells: HEK293T
Method: (§1) Human skeletal muscle subtype of voltage-gated sodium channels (hNav1.4), either wild-type or myotonic mutants, were transiently transfected in HEK293T cells with the calcium-phosphate co-precipitation method. Whole-cell sodium currents (INa) were recorded at room temperature (20-22° C.) using Axon conventional patch-clamp hardware (Molecular Devices, USA). Voltage clamp protocols and data acquisition were performed with pCLAMP software (Axon Instruments). Bath solution contained (mM) 150 NaCl, 4 KCl, 2 CaCl2, 1 MgCl2, 5 Na-HEPES, and 5 glucose (pH 7.4). The pipette solution contained (in mM) 120 CsF, 10 CsCl, 10 NaCl, 5 EGTA, and 5 Cs-HEPES (pH 7.2). […]
(§2) Inhibition of hNav1.4 channels by safinamide was evaluated by measuring the reduction of INa elicited from a holding potential (HP) of −120 to −30 mV at frequency stimulations of 0.1 and 10 Hz. The concentration-response curves of safinamide were produced by obtaining the peak current amplitude measured in the presence of drug (IDRUG), normalized to the peak current amplitude measured in the same cell before drug application (ICTRL), as a function of drug concentration [(DRUG)]. […] The IC50 values were determined at resting membrane potential (tonic block: −120 mV at 0.1 Hz) and after repetitive depolarizing pulses to −20 mV at 10 Hz (use and frequency-dependent block). […]

[4] = molecular target: T2, hNav1.4 V1293I (Homo sapiens, UniProt P35499, V1293I); assay: Whole-cell patch clamp sodium current inhibition in transfected HEK293T cells, V1293I mutant; type: cell-based
T2 construct: expressed in transfected cells; host or cells: HEK293T
Method: p.V1293I: the V1293I mutation is associated to various phenotypes, from sodium channel myotonia to paramyotonia congenita+hyperkalemic periodic paralysis (Koch et al., 1995).
as §1, with “Instruments).” for “Instruments). Bath solution contained (mM) 150 NaCl, 4 KCl, 2 CaCl2, 1 MgCl2, 5 Na-HEPES, and 5 glucose (pH 7.4). The pipette solution contained (in mM) 120 CsF, 10 CsCl, 10 NaCl, 5 EGTA, and 5 Cs-HEPES (pH 7.2).”
as §2

[5] = molecular target: T3, hNav1.4 F1298C (Homo sapiens, UniProt P35499, F1298C); assay: Whole-cell patch clamp sodium current inhibition in transfected HEK293T cells, F1298C mutant; type: cell-based
T3 construct: expressed in transfected cells; host or cells: HEK293T
Source text: p.F1298C: this mutation was found in a person, presenting with stiffness in facial, upper and lower limb muscles, mainly after contraction (Farinato et al., 2019). Symptoms worsened with cold and myotonia was reported as painful. The patient noticed a mild improvement of myotonia with exercise.
Human skeletal muscle subtype of voltage-gated sodium channels (hNav1.4), either wild-type or myotonic mutants, were transiently transfected in HEK293T cells with the calcium-phosphate co-precipitation method. Whole-cell sodium currents (INa) were recorded at room temperature (20-22° C.) using Axon conventional patch-clamp hardware (Molecular Devices, USA). […]
as §2

[6] = molecular target: T4, hNav1.4 P1158L (Homo sapiens, UniProt P35499, P1158L); assay: Whole-cell patch clamp sodium current inhibition in transfected HEK293T cells, P1158L mutant; type: cell-based
T4 construct: expressed in transfected cells; host or cells: HEK293T
Method: as §1, §2

[7] = molecular target: hNav1.4 I1310N (Homo sapiens, UniProt P35499, I1310N); assay: Whole-cell patch clamp sodium current inhibition in transfected HEK293T cells, I1310N mutant; type: cell-based
Method: p.I1310N: this mutation has been found in 5 related of a French kindred, and is associated to sodium channel myotonia (Farinato et al., 2019).
as §1, with “7.4).” for “7.4). The pipette solution contained (in mM) 120 CsF, 10 CsCl, 10 NaCl, 5 EGTA, and 5 Cs-HEPES (pH 7.2).”
as §2

[8] = tested on: sarcolemma excitability in single myofibers of isolated Extensor Digitorum Longus (EDL) muscles; assay: In vitro antimyotonic activity in rat EDL skeletal muscle fibers, 9-AC-induced myotonia-like condition, two-microelectrode current clamp; type: cell-based; conditions: for reduction of N spikes (maximum number of spikes): vs 9-AC alone
Method: The antimyotonic activity of safinamide was assessed by recording the sarcolemma excitability in single myofibers of isolated Extensor Digitorum Longus (EDL) muscles using two-microelectrode current-clamp technique. The in-vitro model of myotonia congenita was obtained by incubating rat EDL muscles with 9-anthracene carboxylic acid (9-AC) (Conte Camerino et al., Muscle Nerve. 1989; 12(11):898-904. Altamura et al., Br J Pharmacol. 2018; 175(10):1770-1780). The increase of sarcolemma excitability caused by 9-AC through the blockade of skeletal muscle ClC-1 chloride channels mimicked the abnormal action potential firing observed in patients affected by myotonia congenita.
EDL muscles were dissected out from male Wistar rats under deep anaesthesia (80 mg/kg ip ketamine and 10 mg/kg ip xylazine). Muscles were placed in a 25 ml muscle bath maintained at 30° C. and perfused with saline (gassed with 95% O2 and 5% CO2; pH=7.2-7.3). By means of standard two-intracellular-microelectrode technique, the resting membrane potential and excitability characteristics (number of spikes) of muscle fibres were measured in current clamp mode. The excitability characteristics of the sampled fibres were determined by recording the intracellular membrane potential response to a square-wave constant (100 ms) current pulse. In each fibre, the membrane potential was set by a steady holding current to −80 mV before passing the depolarizing pulses. By increasing the amplitude of the pulse we were able to elicit the first single action potential and by further increasing current intensity in the same fibre, the maximum number of elicitable spikes (N spikes) was measured (Pierno et al., Br J Pharmacol. 2006; 149(7):909-19).
Unwarranted muscle contractions were hampered with dantrolene sodium (2 mg/1). Cell excitability parameters (N spikes) was measured before (control) and after 50 μM 9-AC alone and concomitant application of safinamide at six different concentrations (0.1 to 30 μM). In these experimental conditions, safinamide methanesulfonate was used and dissolved as stock solution (10 mM) in distilled water, then it was diluted to the final concentrations in the muscle bath solution. One animal was used to test two concentrations of safinamide: one concentration in each EDL muscle.

[9] = HP -120 mV, 0.1 Hz, read-out: IC50 ± SE Tonic block at 0.1 Hz
[10] = repetitive depolarizing pulses, 10 Hz, read-out: IC50 ± SE Use and frequency-dependent block at 10 Hz

Sequence of hNav1.4 I1310N (P35499 whole entry I1310N): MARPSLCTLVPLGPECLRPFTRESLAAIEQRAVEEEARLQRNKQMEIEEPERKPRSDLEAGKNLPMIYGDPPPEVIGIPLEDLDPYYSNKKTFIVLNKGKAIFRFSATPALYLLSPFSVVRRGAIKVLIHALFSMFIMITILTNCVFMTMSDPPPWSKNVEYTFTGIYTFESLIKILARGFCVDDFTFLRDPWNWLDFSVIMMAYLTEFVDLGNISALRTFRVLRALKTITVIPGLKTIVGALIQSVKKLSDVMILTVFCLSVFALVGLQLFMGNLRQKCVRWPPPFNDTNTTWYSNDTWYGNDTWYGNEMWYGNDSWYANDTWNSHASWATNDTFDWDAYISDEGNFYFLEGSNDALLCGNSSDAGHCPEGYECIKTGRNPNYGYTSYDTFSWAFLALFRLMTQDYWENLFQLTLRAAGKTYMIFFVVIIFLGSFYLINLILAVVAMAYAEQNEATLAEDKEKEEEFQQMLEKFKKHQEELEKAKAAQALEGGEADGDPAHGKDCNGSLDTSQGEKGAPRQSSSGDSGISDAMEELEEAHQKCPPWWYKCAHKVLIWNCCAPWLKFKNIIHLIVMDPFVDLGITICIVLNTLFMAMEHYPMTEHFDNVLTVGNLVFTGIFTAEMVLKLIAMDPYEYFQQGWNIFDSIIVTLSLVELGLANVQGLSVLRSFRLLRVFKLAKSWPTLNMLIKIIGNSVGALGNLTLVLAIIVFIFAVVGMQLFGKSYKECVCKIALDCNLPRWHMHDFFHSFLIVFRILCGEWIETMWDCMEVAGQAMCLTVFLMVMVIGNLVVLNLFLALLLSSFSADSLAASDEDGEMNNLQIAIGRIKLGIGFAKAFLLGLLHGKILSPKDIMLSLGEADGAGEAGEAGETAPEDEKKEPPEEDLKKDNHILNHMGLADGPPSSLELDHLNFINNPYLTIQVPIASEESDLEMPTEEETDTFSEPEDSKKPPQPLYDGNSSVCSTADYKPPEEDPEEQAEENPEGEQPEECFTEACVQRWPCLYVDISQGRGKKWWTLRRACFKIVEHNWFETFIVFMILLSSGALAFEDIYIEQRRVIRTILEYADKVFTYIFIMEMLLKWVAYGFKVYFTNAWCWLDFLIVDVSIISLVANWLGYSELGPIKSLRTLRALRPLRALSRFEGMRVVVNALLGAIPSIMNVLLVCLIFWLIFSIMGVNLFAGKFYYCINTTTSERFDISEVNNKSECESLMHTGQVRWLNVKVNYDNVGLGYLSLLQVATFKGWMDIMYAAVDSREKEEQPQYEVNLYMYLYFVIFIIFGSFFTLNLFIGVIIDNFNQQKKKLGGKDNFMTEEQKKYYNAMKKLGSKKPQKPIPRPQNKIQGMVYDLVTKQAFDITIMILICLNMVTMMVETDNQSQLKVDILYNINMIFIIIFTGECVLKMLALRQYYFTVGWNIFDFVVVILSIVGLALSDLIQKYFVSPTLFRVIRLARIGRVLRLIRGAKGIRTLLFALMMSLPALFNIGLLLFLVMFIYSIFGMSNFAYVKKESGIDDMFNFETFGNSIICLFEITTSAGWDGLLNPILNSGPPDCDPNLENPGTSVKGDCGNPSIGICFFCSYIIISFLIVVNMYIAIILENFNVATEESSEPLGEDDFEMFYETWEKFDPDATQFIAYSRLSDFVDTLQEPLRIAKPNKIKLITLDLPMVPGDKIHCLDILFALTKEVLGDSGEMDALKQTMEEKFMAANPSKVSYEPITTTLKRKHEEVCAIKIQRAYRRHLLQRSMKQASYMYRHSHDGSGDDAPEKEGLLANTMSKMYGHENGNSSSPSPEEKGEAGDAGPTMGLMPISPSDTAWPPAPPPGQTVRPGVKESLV
T2 sequence (P35499 whole entry V1293I): as the sequence (P35499 whole entry I1310N) above, with V1293I, N1310I counted along it
T1 sequence (P35499 whole entry): as the sequence (P35499 whole entry I1310N) above, with N1310I counted along it
T4 sequence (P35499 whole entry P1158L): as the sequence (P35499 whole entry I1310N) above, with P1158L, N1310I counted along it
T3 sequence (P35499 whole entry F1298C): as the sequence (P35499 whole entry I1310N) above, with F1298C, N1310I counted along it

Cc1cccc(C)c1OCC(C)N (centres unmarked) [mexiletine]
potency relative to safinamide in the same test (fold less potent) ([1]; TRR, 9-AC rat model): about 6 fold
potency in hNav1.4 point mutations transfected cells [2]: significantly decreases

C[C@H](NCc1ccc(OCc2cccc(F)c2)cc1)C(N)=O [safinamide, (2S)-2-[[4-[(3-fluorophenyl)methoxy]phenyl]methylamino]propanamide]
IC50 [3, 9]: 160 ± 18 µM
IC50 [3, 10]: 33 ± 4 µM
reduction of TRR ([1]; 37 min after 9-AC, 3, 10 and 30 mg/kg oral): significant
maximal effect on TRR prolongation ([1]; 67 min, dose of 10-30 mg/kg oral): 66%
TRR inhibition ([1]; 67 min after 9-AC (peak effect), also with 1 mg/kg oral): significant
TRR inhibition ([1]; 127 min after 9-AC, only 10 and 30 mg/kg oral): significant inhibition
ED50 ([1]; Rattus norvegicus, 67 min, dose-response curve at 67 min, oral, read-out: ED50 (effective dose in inhibiting by 50% TRR prolongation)): 1.2 mg/kg
effect on 9-AC-induced TRR prolongation ([1]; at peak effect (37 and 67 min after 9-AC), oral gavage): dose-dependently and significantly counteracted
duration of effect on TRR prolongation ([1]; oral gavage, 17 min after 9-AC): ≤ 120 min
IC50 [4, 9]: 171 ± 19 µM
IC50 [4, 10]: 47 ± 5 µM
IC50 [5, 9]: 173 ± 12 µM
IC50 [5, 10]: 83 ± 2 µM
IC50 [6, 9]: 148 ± 13 µM
IC50 [6, 10]: 34 ± 3 µM
IC50 [7, 9]: 170 ± 26 µM
IC50 [7, 10]: 46 ± 7 µM
IC50 ([8]; Rattus norvegicus, fit of concentration-response curve, ±SE of the fit, 50 μM 9-AC, read-out: IC50 (concentration able to reduce by 50% the 9-AC effect)): 13.4 ± 2.4 µM
reduction of N spikes (maximum number of spikes) ([8]; safinamide 1 μM with 50 μM 9-AC): 22±6%
reduction of N spikes (maximum number of spikes) ([8]; safinamide 5 μM with 50 μM 9-AC): 35±5%
reduction of N spikes (maximum number of spikes) ([8]; safinamide 10 μM with 50 μM 9-AC): 42±5%
reduction of N spikes (maximum number of spikes) ([8]; safinamide 30 μM with 50 μM 9-AC): 60±6%
reversibility of antimyotonic effect upon wash-out ([8]; wash-out, 9-AC 50 μM): reversible

O=C(O)c1c2ccccc2cc2ccccc12 [9-AC, 9-anthracene carboxylic acid]
time of righting reflex (TRR) ([1]; 10 min after 9-AC injection): about 2 s
time of righting reflex (TRR) ([1]; 30 min after 9-AC injection): about 4 s
time of righting reflex (TRR) ([1]; 3 h after 9-AC injection): ~1 s
increase of N spikes ([8]; 50 μM 9-AC alone vs control): 60%
